Drawing on ChEMBL document CHEMBL1158104, “Mooloolabenes A-E, norsesterterpenes from the Australian sponge Hyattella intestinalis” (J Nat Prod, 2006), this text covers IC50 for 6 compounds.

≈ marks a conversion by molar mass, not a printed value.

This assay concerns P388. Put plainly: Cytotoxicity against mouse P388 cells. The class given is functional, cell-based.
With `CC1(C)CCC[C@]2(C)[C@H]3CC[C@]4(C)[C@@H](C=O)C(C=O)=CC[C@H]4C3=CC[C@@H]12` [MOOLOOLABENE A], the IC50 is 0.8 µg/mL (≈ 2.26 µM).
With `CC1(C)CCC[C@]2(C)[C@H]3CC[C@]4(C)[C@H](C=O)C(C=O)=CC[C@H]4C3=CC[C@@H]12` [MOOLOOLABENE B] the figure was 1.2 µg/mL (≈ 3.38 µM); with `CC(=O)OC[C@@]1(C)CCC[C@]2(C)[C@H]3CC[C@]4(C)[C@@H](C=O)C(C=O)=CC[C@H]4C3=CC[C@@H]12` [MOOLOOLABENE C], 3 µg/mL (≈ 7.27 µM).
Regarding `CC(=O)O[C@@H]1OCC2=CC[C@H]3C4=C[C@@H](OC(C)=O)[C@H]5C(C)(C)CCC[C@]5(C)[C@H]4CC[C@]3(C)[C@H]21` [MOOLOOLABENE D], half-maximal inhibition (IC50) required 3 µg/mL (≈ 6.57 µM).
With `CC(=O)O[C@@H]1OCC2=CC[C@H]3C4=CC[C@H]5C(C)(C)CCC[C@]5(C)[C@H]4CC[C@]3(C)[C@H]21` [MOOLOOLABENE E] the figure was 3 µg/mL (≈ 7.53 µM); with `CC(=O)O[C@@H]1OC=C2CC[C@@H]3[C@](C)(CC[C@@H]4[C@@]5(C)CCCC(C)(C)[C@@H]5CC[C@@]34C=O)[C@H]21` [MOOLOOLALDEHYDE], 3 µg/mL (≈ 7 µM).
